Reference: US6340670B1, “Acetal benzylmaltosides as inhibitors of smooth muscle cell proliferation” (American Home Products Corporation, priority 1998, dated 2002)
Read-outs that look alike come from different tables or passages of the source.

Legend:
[1] = test system: Porcine Smooth Muscle Cell; assay: Effects of Compounds on Cell Proliferation Using 3H Thymidine Incorporation; type: cell-based; conditions: serum/growth factor stimulated cells, 24-36 h incubation, read-out: Porcine Smooth Muscle Cell Antiproliferation IC50
How it was run: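 Early-passage (3-7) sub-confluent smooth muscle cells, serum-starved 24-48 h, were stimulated with growth factor or serum and treated with compound (1 to 100 μM, from 50% ethanol stock) for 24-36 h at 37° C. Proliferation by ^3H-thymidine incorporation into TCA-insoluble material, triplicate, relative to maximally stimulated cells (100%); given as IC50 or % inhibition.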

Row | SMILES | IC50 ([1]; Sus scrofa) | melting point | IC50 [1]
1 | CC(=O)Nc1cc(COC2OC(COC(=O)c3cccnc3)C(OC3OC4COC(c5ccccc5)OC4C(OC(C)=O)C3OC(C)=O)C(OC(C)=O)C2OC(C)=O)ccc1Cl (stereo not shown) [Example 55, Nicotinic acid 4,5-diacetoxy-6-(3-acetylamino-4-chloro-benzyloxy)-3-(7,8-diacetoxy-2-phenyl-hexahydro-pyrano[3,2-d][1,3]dioxin-6-yloxy)-tetrahydro-pyran-2-ylmethyl ester] | 304 nM | > 112 °C (dec.) | –
2 | COc1ccc(CC(=O)OCC2OC(OCc3ccc(Cl)c(NC(C)=O)c3)C(O)C(O)C2OC2OC3COC(c4ccccc4)OC3C(O)C2O)cc1OC (stereo not shown) [Example 52, (3,4-Dimethoxy-phenyl)-acetic acid 6-(3-acetylamino-4-chloro-benzyloxy)-3-(7,8-dihydroxy-2-phenyl-hexahydro-pyrano[3,2-d][1,3]dioxin-6-yloxy)-4,5-dihydroxy-tetrahydro-pyran-2-ylmethyl ester] | 48 nM | > 116 °C (dec.) | –
3 | CC(=O)Nc1cc(COC2OC(COC(=O)C(c3ccccc3)c3ccccc3)C(OC3OC4COC(c5ccccc5)OC4C(O)C3O)C(O)C2O)ccc1Cl (stereo not shown) [Example 50, Diphenyl-acetic acid 6-(3-acetylamino-4-chloro-benzyloxy)-3-(7,8-dihydroxy-2-phenyl-hexahydro-pyrano[3,2-d][1,3]dioxin-6-yloxy)-4,5-dihydroxy-tetrahydro-pyran-2-ylmethyl ester] | 84 nM | > 106 °C (dec.) | –
4 | CC(=O)Nc1cc(COC2OC(COC(=O)c3ccc(Cl)cc3)C(OC3OC4COC(c5ccccc5)OC4C(OC(C)=O)C3OC(C)=O)C(OC(C)=O)C2OC(C)=O)ccc1Cl (stereo not shown) [Example 37, 4-Chloro-benzoic acid 4,5-diacetoxy-6-(3-acetylamino-4-chloro-benzyloxy)-3-(7,8-diacetoxy-2-phenyl-hexahydro-pyrano[3,2-d][1,3]dioxin-6-yloxy)-tetrahydro-pyran-2-ylmethyl ester] | 588 nM | 114 to 115 °C | –
5 | O=C(OCC1OC(OCc2ccc(Cl)c([N+](=O)[O-])c2)C(O)C(O)C1OC1OC2COC(c3ccccc3)OC2C(O)C1O)c1cccnc1 (stereo not shown) [Example 32, Nicotinic acid 6-(4-chloro-3-nitro-benzyloxy)-3-(7,8-dihydroxy-2-phenyl-hexahydro-pyrano[3,2-d][1,3]dioxin-6-yloxy)-4,5-dihydroxy-tetrahydro-pyran-2-ylmethyl ester] | 405 nM | > 105 °C (dec.) | –
6 | CC(=O)Nc1cc(COC2OC(COC(=O)c3ccc(Cl)cc3)C(OC3OC4COC(c5ccccc5)OC4C(O)C3O)C(O)C2O)ccc1Cl (stereo not shown) [Example 36, 4-Chloro-benzoic acid 6-(3-acetylamino-4-chloro-benzyloxy)-3-(7,8-dihydroxy-2-phenyl-hexahydro-pyrano[3,2-d][1,3]dioxin-6-yloxy)-4,5-dihydroxy-tetrahydro-pyran-2-ylmethyl ester] | 89 nM | > 113 °C (dec.) | –
7 | COc1ccc(C(=O)OCC2OC(OCc3ccc(Cl)c(NC(C)=O)c3)C(OC(C)=O)C(OC(C)=O)C2OC2OC3COC(c4ccccc4)OC3C(OC(C)=O)C2OC(C)=O)cc1 (stereo not shown) [Example 35, 4-Methoxy-benzoic acid 4,5-diacetoxy-6-(3-acetylamino-4-chloro-benzyloxy)-3-(7,8-diacetoxy-2-phenyl-hexahydro-pyrano[3,2-d][1,3]dioxin-6-yloxy)-tetrahydro-pyran-2-ylmethyl ester] | 851 nM | > 110 °C (dec.) | –
8 | COc1ccc(CC(=O)OCC2OC(OCc3ccc(Cl)c(NC(C)=O)c3)C(OC(C)=O)C(OC(C)=O)C2OC2OC3COC(c4ccccc4)OC3C(OC(C)=O)C2OC(C)=O)cc1OC (stereo not shown) [Example 53, (3,4-Dimethoxy-phenyl)-acetic acid 4,5-diacetoxy-6-(3-acetylamino-4-chloro-benzyloxy)-3-(7,8-diacetoxy-2-phenyl-hexahydro-pyrano[3,2-d][1,3]dioxin-6-yloxy)-tetrahydro-pyran-2-ylmethyl ester] | 266 nM | > 98 °C (dec.) | –
9 | COc1ccc(C(=O)OCC2OC(OCc3ccc(Cl)c(NC(C)=O)c3)C(O)C(O)C2OC2OC3COC(c4ccccc4)OC3C(O)C2O)cc1 (stereo not shown) [Example 34, 4-Methoxy-benzoic acid 6-(3-acetylamino-4-chloro-benzyloxy)-3-(7,8-dihydroxy-2-phenyl-hexahydro-pyrano[3,2-d][1,3]dioxin-6-yloxy)-4,5-dihydroxy-tetrahydro-pyran-2-ylmethyl ester] | 61 nM | > 117 °C (dec.) | –
10 | O=[N+]([O-])c1cc(CSC2OC(CO)C(OC3OC4COC(c5ccccc5)OC4C(O)C3O)C(O)C2O)ccc1Cl (stereo not shown) [Example 86, 6-[-6-(4-Chloro-3-nitro-benzylsulfanyl)-4,5-dihydroxy-2-hydroxymethyl-tetrahydro-pyran-3-yloxy]-2-phenyl-hexahydro-pyrano[3,2-d][1.3]dioxine-7.8-diol] | – | – | 16300 nM
11 | CC(=O)Nc1cc(COC2OC(COC(=O)C(c3ccccc3)c3ccccc3)C(OC3OC4COC(c5ccccc5)OC4C(OC(C)=O)C3OC(C)=O)C(OC(C)=O)C2OC(C)=O)ccc1Cl (stereo not shown) [Example 51, Diphenyl-acetic acid 4,5-diacetoxy-6-(3-acetylamino-4-chloro-benzyloxy)-3-(7,8-diacetoxy-2-phenyl-hexahydro-pyrano[3,2-d][1,3]dioxin-6-yloxy)-tetrahydro-pyran-2-ylmethyl ester] | 354 nM | > 99 °C (dec.) | –
12 | CC(=O)Nc1cc(COC2OC(COC(=O)c3ccccc3)C(OC3OC4COC(c5ccccc5)OC4C(O)C3O)C(O)C2O)ccc1C#N [Example 84, N-{5-[(6-O-Benzoyl-4′,6′-O-benzylidene-β-D-maltosyl)-oxy-methyl]-2-cyano-phenyl}-acetamide] | – | – | 250 nM
